According to patent US9889181B2, “Bacteriophage lysin and antibiotic combinations against gram positive bacteria” (priority 2012, dated 2018):
Values after ≈ are worked out from the molar mass of the structure shown. Where two headings read alike, the source gives them in different places.

What was measured:
[1] = system: 20 different MSSA and 42 MRSA strains; assay: Time-kill assay, single agents at 1×MIC; format: cell-based, Staphylococcus aureus; details: 1×MIC; for comparative kill: up to 6 hours
Description: In order to more fully evaluate PlySs2's applicability to clinical Staphylococcal infections, time kill studies were undertaken against numerous Staphylococcus aureus strains, including methicillin resistant and methicillin sensitive strains. Time kill assays were performed according to CLSI methodology (CLSI document M07-A9 column 32 No. 2) on 42 methicillin resistant S. aureus (MRSA) strains and 20 methicillin sensitive S. aureus (MSSA) strains. Cultures of each strain (5.5×10^5-1×10^6 starting inoculum) were treated with PlySs2 lysin and with antibiotics daptomycin, oxacillin or vancomycin for comparison for 6 hours with aeration. MRSA and MSSA strains were treated with PlySs2, daptomycin and vancomycin. MSSA strains were also treated with oxacillin. 1×MIC concentrations of the different antibiotics were utilized, based on published and established antibiotic MIC values. PlySs2 lysin treatment was at approximately 1×MIC as previously determined (see TABLE 2 above). Culture aliquots were removed hourly up to 6 hours (time points taken at 15 and 30 min, 1 hr, 2 hr, 3 hr, 4 hr, 5 hr, and 6 hr) and added to a PBS/charcoal solution (to inactivate each drug), which was then serially diluted and plated for bacterial viability. The resulting log CFU/mL was plotted for each culture. Growth controls were included for each strain and represent bacterial growth in the absence of any antibacterial agent. Exemplary log kill curves for selected MRSA strains are depicted in FIG. 1. Exemplary log kill curves for selected MSSA strains are depicted in FIG. 2.
Rapid-kill kinetics are desirable in the clinical setting to treat patients with fulminant bacterial infections.

MRSA S. aureus strains = assay: Dual agent MIC assay (PlySs2 and daptomycin); format: cell-based, Staphylococcus aureus
S. aureus cell envelope = assay: BODIPY-labeled antibiotic cell envelope binding time course; format: cell-based
Description: As a complement to the synergy studies, daptomycin and vancomycin cell envelope-binding was examined using BODIPY-fluorescein-labeled antibiotics in the presence and absence of sub-MIC levels of CF-301.

[2] = system: MRSA strain MW2 and MSSA strain ATCC 29213; format: cell-based, Staphylococcus aureus
MRSA strain 269 (MW2) = assay: Combination MIC in 15% surfactant (Survanta); format: cell-based, Staphylococcus aureus
MRSA strains = assay: Time kill assay, PlySs2 and antibiotic alone or in combination; format: cell-based, Staphylococcus aureus; details: ½ MIC of PlySs2 or ¼ MIC of vancomycin alone
[3] = system: MRSA strain MW2 (also strains 738, 832); format: in vivo, BALB/c mice; details: FIG. 27E; 10^9 CFU, dosing at 2 hours; vancomycin 110 mg/kg twice daily, PlySs2 5.25 mg/kg
[4] = system: MRSA Staphylococcus aureus strain (MW2); assay: microbe, parasite or virus in culture; format: cell-based

SMILES | time to reach bactericidal levels (≧3-log10 reduction in CFUs) [1] [hours] | comparative kill [1] | MIC alone (MRSA S. aureus strains; MRSA strain 269 (MW2), single-agent) [µg/mL] | daptomycin MIC with 0.25×MIC PlySs2 (MRSA S. aureus strains; dual agent MIC assay, strain not named) [µg/mL] | time to antibiotic penetration (BODIPY-labeled daptomycin binding) (S. aureus cell envelope; in the presence of CF-301 at 1/32nd MIC) [min] | time to antibiotic penetration (BODIPY-labeled daptomycin binding) (S. aureus cell envelope; without CF-301) [min] | fold inhibition of MIC in the presence of Survanta ([2]; surfactant concentration of 1.25%) | fold inhibition of MIC in the presence of Survanta ([2]; surfactant up to 15%, vs MIC without surfactant) | effective combination concentration as fraction of the MIC (MRSA strain 269 (MW2)) | effective concentration in PlySs2 plus daptomycin combination MIC (MRSA strain 269 (MW2); 24 hours) [µg/mL] | effect alone at sub-MIC doses up to 6 hours (MRSA strains) | time to cell wall-labeling with BODIPY-labeled vancomycin (S. aureus cell envelope; in the presence of CF-301 (⅛^th MIC)) [min] | time to cell wall-labeling with BODIPY-labeled vancomycin (S. aureus cell envelope; without CF-301) [min] | 24 hour survival rate [3] [%] | 72 hour survival rate [3] [%] | fold increase in vancomycin MIC ([4]; 25-day, vancomycin-only) [fold] | vancomycin MIC, ending values ([4]; 25 day serial passage, PlySs2 (8 ug/ml) plus vancomycin (three cultures)) [µg/mL] | MIC ([4]; Staphylococcus aureus, MRSA, read-out: vancomycin MIC, starting value, MW2) [µg/mL]
CCCCCCCCCC(=O)N[C@@H](Cc1c[nH]c2ccccc12)C(=O)N[C@H](CC(N)=O)C(=O)N[C@@H](CC(=O)O)C(=O)N[C@@H]1C(=O)NCC(=O)N[C@@H](CCCN)C(=O)N[C@@H](CC(=O)O)C(=O)N[C@H](C)C(=O)N[C@@H](CC(=O)O)C(=O)NCC(=O)N[C@H](CO)C(=O)N[C@@H]([C@H](C)CC(=O)O)C(=O)N[C@@H](CC(=O)c2ccccc2N)C(=O)O[C@@H]1C [Daptomycin, reference compound] | 6 | most effective against most strains | 1 (≈ 0.617 µM) | 0.0075 | 15 | 180 | more than 20 fold | up to 256 fold | 1/1024 | 0.25 | – | – | – | – | – | – | – | –
Cc1onc(-c2ccccc2)c1C(=O)N[C@@H]1C(=O)N2[C@@H]1SC(C)(C)[C@@H]2C(=O)O [Oxacillin, oxacillin, reference compound] | – | least effective | – | – | – | – | – | – | – | – | – | – | – | – | – | – | – | –
CN[C@H](CC(C)C)C(=O)N[C@H]1C(=O)N[C@@H](CC(N)=O)C(=O)N[C@H]2C(=O)N[C@H]3C(=O)N[C@H](C(=O)N[C@H](C(=O)O)c4cc(O)cc(O)c4-c4cc3ccc4O)[C@H](O)c3ccc(c(Cl)c3)Oc3cc2cc(c3O[C@@H]2O[C@H](CO)[C@@H](O)[C@H](O)[C@H]2O[C@H]2C[C@](C)(N)[C@H](O)[C@H](C)O2)Oc2ccc(cc2Cl)[C@H]1O [Vancomycin, vancomycin] | – | – | – | – | – | – | – | – | – | – | ineffective or poorly effective | ≤ 5 | 30 | 20 | 3 | 16 | 2 | 1 (≈ 0.69 µM)
